Results reported in PMC12476087, “Loading of Dicarboxylatoplatinum(II)‐NHC Complexes in Bacterial Ghosts as an Advanced Development in Cancer Therapy” (Archiv Der Pharmazie, 2025).

What was measured:
[1] = tested on: HS‐5 cells; test: MTT assay, HS‐5 cells; type: cell-based; conditions: 72 h exposure, nonmalignant bone marrow stromal cells
Method: Carboplatin, a second‐generation platinum drug commonly used as part of standard first‐line chemotherapy for ovarian carcinoma, was examined as a reference compound due to its clinical relevance. Additionally, the nonmalignant bone marrow stromal cell line HS‐5 was included as a control to assess specificity of the complexes toward cancer cells.
The exponentially growing cells were seeded at a density of 8 × 10^3 cells/well (A2780wt/cis) or 1 × 10^4 cells/well (HS‐5), respectively, into clear flat‐bottom 96‐well plates in triplicates. Following 24 h of incubation for the adherence of the cells at 37°C in a humidified atmosphere (5% CO2/95% air), the test compounds were added. […] For the evaluation of the cell growth inhibition by the compounds loaded in BGs, the BG suspensions were directly diluted in RPMI 1640 to the desired testing concentration (25 µM). After another 72 h of incubation, the cellular metabolic activity was measured as an indicator of cell viability employing an MTT assay. Hereby, 20 µL of a 5 mg/mL MTT solution was added to each well, respectively. After 3 h of incubation, the medium was discarded, and the formazan crystals formed were dissolved in DMSO for 15 min with gentle shaking. Afterward, the optical density (OD) was measured at 595 and 620 nm, respectively on an EnSpire Multimode Plate Reader (revvity, Waltham, MA, USA). The OD at 620 nm was subtracted from the OD at 595 nm. The OD of the medium was subtracted to exclude the unspecific staining caused by FCS‐containing medium. Cells treated with vehicle control (0.1% DMF) only were set at 100% metabolic activity. The IC50 values were calculated with Prism 8.0 (GraphPad Software Inc., Boston, MA, USA) using nonlinear regression. Significance was evaluated via a one sample t‐test performed with Prism 8.0.

[2] = tested on: surface calreticulin on A2780wt cells; test: Immunofluorescent surface calreticulin staining, A2780wt; type: cell-based; conditions: w/o BGs, 25 µM, 24 h
Method: Oxaliplatin, a known metal‐based ICD inducer, was included for comparison.
A2780wt or A2780cis cells were seeded at a density of 1.2 × 10^5 on cover slips and allowed to adhere for 24 h. […] Subsequently, the cells were washed again three times with PBS and they were incubated after adding the secondary antibody (Alexa‐Fluor‐conjugated anti‐rabbit, 1:200), for 45 min at rt. Subsequently, the cells were washed again three times with PBS and they were mounted on slides with mounting medium. After letting them dry overnight, visualization was performed by spinning disk confocal microscopy. […] Acquired images were background subtracted, individual cells were manually segmented, and fluorescence intensity for the calreticulin staining was quantified with a FIJI software. Two repetitions of the experiment were performed, where at least 20 cells per condition were analyzed and the mean intensity of each sample was calculated, respectively.

[3] = tested on: A2780cis cells; test: Annexin V/PI staining and FACS analysis, A2780cis; type: cell-based; conditions: w/o BGs, 25 µM, 24 h; for late apoptosis/ necrosis: Annexin V positive/PI positive; for early apoptosis: percentage of cells (Annexin V positive/PI negative)
Method: Therefore, we aimed to evaluate the apoptosis and necrosis inducing potential of complexes 1–4 via a fluorescent‐activated cell sorting (FACS) analysis with Annexin V/propidium iodide (PI) staining in A2780wt and A2780cis cells. Cells were treated for 24 h with both the free and BG‐loaded forms of each compound at 25 µM. Carboplatin (50 µM) served as a reference.
To evaluate the mode of cell death, a FACS measurement after staining with Annexin V and PI was conducted. First, 0.3 × 10^6 A2780wt or A2780cis cells were seeded into 12‐well plates and were allowed to adhere for 24 h. The compounds were added at 25 µM, either diluted from a freshly prepared DMF stock solution (0.1% DMF) or freshly thawed when loaded in BGs. After 24 h of incubation, the cells were harvested with accutase and washed with PBS. The cells were then resuspended in 200 µL of PBS each and 1 µL of PI solution (Sigma‐Aldrich, Taufkirchen, Germany) and 1 µL of Annexin V‐FITC (MabTag GmbH, Friesoythe, Germany) were added to each sample. These were then incubated for 20 min at rt under light‐protected conditions and afterward transferred onto ice. The percentage of apoptotic cells was determined by analyzing Annexin V positive /PI negative cells using a BD LSRFortessa flow cytometer and BD FACSDiva software (both BD Biosciences, San Jose, CA, USA). The apoptosis analysis included the evaluation of early apoptosis (Annexin V positive/PI negative) and late apoptosis/necrosis (Annexin V positive /PI positive).

[4] = Stability in aqueous solution (RP‐HPLC‐MS); type: physicochemical; conditions: 0.5 mM in water, rt; m/z 446.1 (1, 20 h), m/z 602.2 (2)
Method: Samples were analyzed by HPLC‐MS immediately after preparation and at selected time points during 24 h of incubation at rt. […] As stationary phase, a Gemini C18 110 Å; 150 × 4.6 mm; 3.0 µm particles (Phenomenex Ltd.; Aschaffenburg, Germany) column was employed and equipped with a 4 × 3 mm guard column of the identical material. […] The oven temperature was maintained at 30°C and the MS analysis was performed with split flow 1:5 of the eluate in positive ionization mode (capillary voltage 4.5 kV; source temperature 320°C; dry gas 10 L/min; nebulizer gas pressure 30 psi, scan range m/z 50–1500). The injection volume of the sample solution (V sample) was set to 10 µL. Sample degradation was evaluated by integration of the extracted ion chromatograms at the indicated m/z ± 0.5 (based on the monoisotopic peaks).

[5] = Stability in RPMI 1640 cell culture medium (HPLC‐MS); type: physicochemical; conditions: RPMI 1640 without FCS, 1 h incubation, extracted ion chromatograms
Method: Additional stability studies in aqueous media and RPMI 1640 (without FCS) were carried out using RP‐HPLC‐MS. For this purpose, 0.5 mM solutions of complexes 1 and 2 were prepared in Milli‐Q water and RPMI 1640. Samples were analyzed by HPLC‐MS immediately after preparation and at selected time points during 24 h of incubation at rt. HPLC‐MS measurements were performed on Agilent 1260 system hyphenated to an MS Single Quad detector from Agilent with ESI (LC‐MSD from Agilent Technologies, Santa Clara, CA, USA). As stationary phase, a Gemini C18 110 Å; 150 × 4.6 mm; 3.0 µm particles (Phenomenex Ltd.; Aschaffenburg, Germany) column was employed and equipped with a 4 × 3 mm guard column of the identical material. The mobile phase flow was set to 0.8 mL/min; and consisted of a mixture of water (solvent A) – MeOH (solvent B) using gradient elution (0 min 5% B; 3 min 5% B; 17 min 98% B; 20 min stop; post time 10 min). The oven temperature was maintained at 30°C and the MS analysis was performed with split flow 1:5 of the eluate in positive ionization mode (capillary voltage 4.5 kV; source temperature 320°C; dry gas 10 L/min; nebulizer gas pressure 30 psi, scan range m/z 50–1500). The injection volume of the sample solution (V sample) was set to 10 µL. Sample degradation was evaluated by integration of the extracted ion chromatograms at the indicated m/z ± 0.5 (based on the monoisotopic peaks).

CCN1[C]([Pt]([O]C(=O)C(Cl)Cl)([O]C(=O)C(Cl)Cl)[SH](C)(C)=O)N(CC)c2ccccc21 [Compound 3, (SP‐4‐2)‐Bis(dichloroacetato)(1,3‐diethylbenzimidazol‐2‐ylidene)(dimethylsulfoxide)platinum(II)]
IC50 [1]: > 100 µM | x‐fold intensity of surface calreticulin compared to untreated cells [2]: 1.50 ± 0.17 x‐fold | late apoptosis/ necrosis [3]: 10.6 ± 0.95 | early apoptosis [3]: 11.4 ± 1.82

CCN1[C]([Pt]([O]C(C)=O)([O]C(C)=O)[SH](C)(C)=O)N(CC)c2ccccc21 [Compound 1, (SP‐4‐2)‐Diacetato(1,3‐diethylbenzimidazol‐2‐ylidene)(dimethylsulfoxide)platinum(II)]
IC50 [1]: 64.3 ± 8.2 µM | change of HPLC‐MS signal intensity in aqueous solution [4]: No significant decrease in the intensity of this signal | concentration remaining in RPMI 1640 [5]: approximately 37% | x‐fold intensity of surface calreticulin compared to untreated cells [2]: 1.09 ± 0.00 x‐fold | late apoptosis/ necrosis [3]: 15.0 ± 1.65 | early apoptosis [3]: 21.3 ± 1.18

(SP‐4‐2)‐Bis(dichloroacetato)bis(1,3‐diethylbenzimidazol‐2‐ylidene)platinum(II) [Compound 4]
IC50 [1]: 37 ± 1.36 µM | x‐fold intensity of surface calreticulin compared to untreated cells [2]: 1.37 ± 0.24 x‐fold | late apoptosis/ necrosis [3]: 18.1 ± 1.46 | early apoptosis [3]: 22.9 ± 1.67

(SP‐4‐2)‐Diacetatobis(1,3‐diethylbenzimidazol‐2‐ylidene)platinum(II) [Compound 2]
IC50 [1]: > 50 µM | change of HPLC‐MS signal intensity in aqueous solution [4]: progressively decreased over time | concentration remaining in RPMI 1640 [5]: ~7% | x‐fold intensity of surface calreticulin compared to untreated cells [2]: 1.07 ± 0.12 x‐fold | late apoptosis/ necrosis [3]: 10.0 ± 1.77 | early apoptosis [3]: 6.37 ± 1.17
